Results on 45 compounds are retold here after patent US9145373B2, “Certain kynurenine-3-monooxygenase inhibitors, pharmaceutical compositions, and methods of use thereof” (CHDI FOUNDATION, INC., priority 2008, dated 2015).

The structures appear in SMILES notation.

T1 sequence (Q91WN4 whole entry): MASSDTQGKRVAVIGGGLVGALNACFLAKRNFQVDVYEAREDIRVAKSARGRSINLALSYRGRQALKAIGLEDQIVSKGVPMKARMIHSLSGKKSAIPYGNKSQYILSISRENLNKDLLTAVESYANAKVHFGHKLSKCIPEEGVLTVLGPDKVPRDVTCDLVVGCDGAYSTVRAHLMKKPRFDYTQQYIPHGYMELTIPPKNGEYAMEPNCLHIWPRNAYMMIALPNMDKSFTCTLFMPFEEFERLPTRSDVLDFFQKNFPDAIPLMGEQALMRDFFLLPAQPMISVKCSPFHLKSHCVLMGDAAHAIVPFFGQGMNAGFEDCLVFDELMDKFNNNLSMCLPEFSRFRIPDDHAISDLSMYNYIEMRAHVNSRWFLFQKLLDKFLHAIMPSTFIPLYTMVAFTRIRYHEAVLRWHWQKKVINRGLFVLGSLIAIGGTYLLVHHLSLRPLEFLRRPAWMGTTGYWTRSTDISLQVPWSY

One assay has as its target T1, KMO mouse enzyme (Mus musculus, UniProt Q91WN4).
T1 construct: KMO enzyme prepared at Evotec from mouse liver (4-6 weeks old) via mitochondria isolation; from tissue; host or cells: mouse liver (4-6 weeks old), mitochondria isolation, prepared at Evotec
Description: KMO mouse enzyme assay: L-Kynurenine hydroxylation to 3-Hydroxy-Kynurenine monitored by LC/MS (MRM). Format: biochemical. The following applies: compound at 10 μM; KMO enzyme from mouse liver mitochondria. Here is the method:
A method of monitoring L-Kynurenine (KYN) hydroxylation to form 3-Hydroxy-Kynurenine (3OH-KYN) by LC/MS is described. Product is quantified by multiple reaction monitoring (MRM method).
• Compound: Stock concentrations: 10 mM in 100% DMSO • Enzyme: KMO enzyme prepared at Evotec from mouse liver (4-6 weeks old) via mitochondria isolation as described in the literature • Substrate: L-Kynurenine (Sigma: Cat# K3750, stock concentration: 10 mM in 100 mM potassium phosphate buffer, pH 7.4) Assay Conditions: […]
As for `CN1CCN(c2ccc(NC(=O)c3cc(-c4cccc(Cl)c4)ncn3)cc2)CC1` [6-(3-Chloro-phenyl)-pyrimidine-4-carboxylicacid[4-(4-methyl-piperazin-1-yl)-phenyl]-amide], the “INH.Mouse @ 10 μM” value is recorded as 87.7.

The same assay, now with this note: compound at 10 μM; KMO enzyme from mouse liver mitochondria; read-out: INH.Mouse @ 10 μM.
With `NC(=O)[C@H]1CCCN1C(=O)c1cc(-c2cccc(Cl)c2)ncn1` [(R)-1-[6-(3-Chloro-phenyl)-pyrimidine-4-carbonyl]-pyrrolidine-2-carboxylic acid amide], the inhibition at 10 µM amounted to 95.4%.
On the same count and under the same terms, the same measure for `CNC(=O)c1cc(-c2cccc(Cl)c2)ncn1` [6-(3-Chloro-phenyl)-pyrimidine-4-carboxylic acid methylamide]: 100%; for `O=C(NCc1ccncc1)c1cc(-c2ccc(Cl)c(Cl)c2)ncn1` [6-(3,4-Dichloro-phenyl)-pyrimidine-4-carboxylic acid (pyridin-4-ylmethyl)-amide]: 95.5%.
For the compound `COc1cncc(NC(=O)c2cc(-c3cccc(Cl)c3)ncn2)c1` [6-(3-Chloro-phenyl)-pyrimidine-4-carboxylic acid (5-methoxy-pyridin-3-yl)-amide], the inhibition at 10 µM stood at 100%.
As for `NC(=O)[C@@H]1CCCN1C(=O)c1cc(-c2cccc(Cl)c2)ncn1` [(S)-1-[6-(3-Chloro-phenyl)-pyrimidine-4-carbonyl]-pyrrolidine-2-carboxylic acid amide], the inhibition at 10 µM is 91.1%.
With `O=C(c1cc(-c2ccc(Cl)c(Cl)c2)ncn1)N1Cc2ccccc2C1` [[6-(3,4-Dichloro-phenyl)-pyrimidin-4-yl]-(1,3-dihydro-isoindol-2-yl)-methanone], the inhibition at 10 µM was 63.5%.
Turning to `O=C(Nc1ccc(N2CCOCC2)cc1)c1cc(-c2cccc(Cl)c2)ncn1` [6-(3-Chloro-phenyl)-pyrimidine-4-carboxylic acid (4-morpholin-4-yl-phenyl)-amide], the inhibition at 10 µM came out at 93.6%.
On the same count and under the same terms, the same measure for `COC(=O)c1cc(-c2ccc(Cl)c(Cl)c2)ncn1` [6-(3,4-Dichloro-phenyl)-pyrimidine-4-carboxylic acid methyl ester]: 101%; for `O=C(c1cc(-c2cccc(Cl)c2)ncn1)N1CCC1` [Azetidin-1-yl-[6-(3-chloro-phenyl)-pyrimidin-4-yl]-methanone]: 100%; for `COC(=O)c1cc(-c2cccc(Cl)c2)nc(C)n1` [6-(3-Chloro-phenyl)-2-methyl-pyrimidine-4-carboxylic acid methyl ester]: 100%.
On to `Cc1ccc(NC(=O)c2cc(-c3cccc(Cl)c3)ncn2)cn1` [6-(3-Chloro-phenyl)-pyrimidine-4-carboxylic acid (6-methyl-pyridin-3-yl)-amide], for which the inhibition at 10 µM was 85.3%.
In the case of `Cc1ccc(NC(=O)c2cc(-c3ccc(Cl)c(Cl)c3)ncn2)cn1` [6-(3,4-Dichloro-phenyl)-pyrimidine-4-carboxylic acid (6-methyl-pyridin-3-yl)-amide], the inhibition at 10 µM amounted to 100%.
Still for that read-out and setting: under `Cc1ccc(N(C)C(=O)c2cc(-c3cccc(Cl)c3)ncn2)cc1` [6-(3-Chloro-phenyl)-pyrimidine-4-carboxylic acid methyl-p-tolyl-amide] stands 100%; under `Cn1cc(NC(=O)c2cc(-c3ccc(Cl)c(Cl)c3)ncn2)cn1` [6-(3,4-Dichloro-phenyl)-pyrimidine-4-carboxylic acid (1-methyl-1H-pyrazol-4-yl)-amide], 100%.
Take `O=C(Nc1ccncc1)c1cc(-c2cccc(Cl)c2)ncn1` [6-(3-Chloro-phenyl)-pyrimidine-4-carboxylic acid pyridin-4-ylamide]: the inhibition at 10 µM was determined as 100%.
Still for that read-out and setting: the same measure for `COc1ccc(-c2cc(C(=O)O)ncn2)cc1` [6-(4-Methoxy-phenyl)-pyrimidine-4-carboxylic acid]: 100%.
As for `O=C(c1cc(-c2cccc(Cl)c2)ncn1)N1CCc2cc(F)ccc21` [[6-(3-Chloro-phenyl)-pyrimidin-4-yl]-(5-fluoro-2,3-dihydro-indol-1-yl)-methanone], the inhibition at 10 µM is 100%.
With `COc1ccc(NC(=O)c2cc(-c3cccc(Cl)c3)ncn2)cc1` [6-(3-Chloro-phenyl)-pyrimidine-4-carboxylic acid (4-methoxy-phenyl)-amide], the inhibition at 10 µM is 100%.
The same measure, in the same setting: under `O=C(Nc1cccnc1)c1cc(-c2cccc(F)c2)ncn1` [6-(3-Fluoro-phenyl)-pyrimidine-4-carboxylic acid pyridin-3-ylamide] stands 94.8%.
Same read-out and setting: the same measure for `Cc1noc(C)c1NC(=O)c1cc(-c2cccc(Cl)c2)ncn1` [6-(3-Chloro-phenyl)-pyrimidine-4-carboxylic acid (3,5-dimethyl-isoxazol-4-yl)-amide]: 79%.
On the same count and under the same terms, under `Cc1ccc(NC(=O)c2cc(-c3ccc(Cl)c(Cl)c3)ncn2)cc1` [6-(3,4-Dichloro-phenyl)-pyrimidine-4-carboxylic acid p-tolylamide] stands 100%; under `O=C(Nc1ccon1)c1cc(-c2cccc(Cl)c2)ncn1` [6-(3-Chloro-phenyl)-pyrimidine-4-carboxylic acid isoxazol-3-ylamide], 100%.
Turning to `C[C@H](NC(=O)c1cc(-c2cccc(Cl)c2)ncn1)c1ccccc1` [6-(3-Chloro-phenyl)-pyrimidine-4-carboxylic acid ((S)-1-phenyl-ethyl)-amide], the inhibition at 10 µM came out at 99.8%.
Still for that read-out and setting: the same measure for `COC(=O)c1cc(-c2cccc(OC)c2)ncn1` [6-(3-Methoxy-phenyl)-pyrimidine-4-carboxylic acid methyl ester]: 77.5%; for `Cc1nc(C(=O)O)cc(-c2cccc(Cl)c2)n1` [6-(3-Chloro-phenyl)-2-methyl-pyrimidine-4-carboxylic acid]: 100%; for `O=C(c1cc(-c2ccc(Cl)c(Cl)c2)ncn1)N1CCc2ccccc21` [[6-(3,4-Dichloro-phenyl)-pyrimidin-4-yl]-(2,3-dihydro-indol-1-yl)-methanone]: 100%.
The same measure, in the same setting: under `CS(=O)(=O)NC(=O)c1cc(-c2cccc(Cl)c2)ncn1` [N-[6-(3-Chloro-phenyl)-pyrimidine-4-carbonyl]-methanesulfonamide] stands 99.5%; under `O=C(c1cc(-c2cccc(Cl)c2)ncn1)N1CCc2cc(Cl)ccc21` [(5-Chloro-2,3-dihydro-indol-1-yl)-[6-(3-chloro-phenyl)-pyrimidin-4-yl]-methanone], 100%; under `O=C(Nc1ccccc1)c1cc(-c2cccc(Cl)c2)ccn1` [4-(3-Chloro-phenyl)-pyridine-2-carboxylic acid phenylamide], 68.4%.
Turning to `O=C(c1cc(-c2cccc(Cl)c2)ncn1)N1CC[C@H](O)C1` [[6-(3-Chloro-phenyl)-pyrimidin-4-yl]-((S)-3-hydroxy-pyrrolidin-1-yl)-methanone], the inhibition at 10 µM came to 84.9%.
Take `O=C(Nc1nncs1)c1cc(-c2ccc(Cl)c(Cl)c2)ncn1` [6-(3,4-Dichloro-phenyl)-pyrimidine-4-carboxylic acid [1,3,4]thiadiazol-2-ylamide]: the inhibition at 10 µM is 100%.
Still for that read-out and setting: under `CC(C)NC(=O)c1cc(-c2cccc(Cl)c2)ncn1` [6-(3-Chloro-phenyl)-pyrimidine-4-carboxylic acid isopropylamide] stands 100%; under `CN(C)C(=O)c1cc(-c2cccc(Cl)c2)ncn1` [6-(3-Chloro-phenyl)-pyrimidine-4-carboxylic acid dimethylamide], 100%; under `O=C(Nc1cccnc1)c1cc(-c2cccc(Cl)c2)ccn1` [4-(3-Chloro-phenyl)-pyridine-2-carboxylic acid pyridin-3-ylamide], 52.3%.
Consider `Cc1ncc(NC(=O)c2cc(-c3ccc(Cl)c(Cl)c3)ncn2)cn1` [6-(3,4-Dichloro-phenyl)-pyrimidine-4-carboxylic acid (2-methyl-pyrimidin-5-yl)-amide], for which the inhibition at 10 µM is 85.6%.
Same read-out and setting: the same measure for `O=C(Nc1cccnc1)c1cc(-c2ccc(Cl)c(Cl)c2)ncn1` [6-(3,4-Dichloro-phenyl)-pyrimidine-4-carboxylic acid pyridin-3-ylamide]: 83.5%; for `O=C(Nc1cncnc1)c1cc(-c2cccc(Cl)c2)ccn1` [4-(3-Chloro-phenyl)-pyridine-2-carboxylic acid pyrimidin-5-ylamide]: 60.8%; for `Cc1cc(NC(=O)c2cc(-c3ccc(Cl)c(Cl)c3)ncn2)on1` [6-(3,4-Dichloro-phenyl)-pyrimidine-4-carboxylic acid (3-methyl-isoxazol-5-yl)-amide]: 100%.
Still for that read-out and setting: the same measure for `CN(C(=O)c1cc(-c2cccc(Cl)c2)ncn1)c1cccnc1` [6-(3-Chloro-phenyl)-pyrimidine-4-carboxylic acid methyl-pyridin-3-yl-amide]: 95.2%; for `O=C(O)c1cc(-c2cncc(Cl)c2)ncn1` [6-(5-Chloro-pyridin-3-yl)-pyrimidine-4-carboxylic acid]: 91.7%; for `O=C(Nc1ccon1)c1cc(-c2ccc(Cl)c(Cl)c2)ncn1` [6-(3,4-Dichloro-phenyl)-pyrimidine-4-carboxylic acid isoxazol-3-ylamide]: 100%.
`COc1ccc(N(C)C(=O)c2cc(-c3cccc(Cl)c3)ncn2)cc1` [6-(3-Chloro-phenyl)-pyrimidine-4-carboxylic acid (4-methoxy-phenyl)-methyl-amide]: the inhibition at 10 µM is 100%.
Turning to `COC(=O)c1cc(-c2cccc(Cl)c2F)ncn1` [6-(3-Chloro-2-fluoro-phenyl)-pyrimidine-4-carboxylic acid methyl ester], the inhibition at 10 µM was determined as 100%.
Turning to `O=C(Nc1cncnc1)c1cc(-c2ccc(F)c(F)c2)ncn1` [6-(3,4-Difluoro-phenyl)-pyrimidine-4-carboxylic acid pyrimidin-5-ylamide], the inhibition at 10 µM was found to be 100%.
